Laboratory results taken from patent US10167262B2, “Herbicidal substituted 3-arylpyrazoles” (FMC CORPORATION, priority 2014, dated 2019).

Assays:
Assay type in all cases: in vivo
[1] = tested on: waterhemp_RES2, (ALS & HPPD resistant common waterhemp, Amaranthus rudis); assay: Test E postemergence greenhouse test, plant response rating 0-100; conditions: scale 0 to 100
How it was run: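 Visual ratings, 0 (no effect) to 100 (complete control), made versus controls 14–21 days after postemergence application in the greenhouse. Plants were at 1- to 4-leaf stage (2–18 cm) in peat moss/vermiculite potting medium.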

[2] = tested on: dayflower (Virginia (VA) dayflower, Commelina virginica); assay: Test E pre-/postemergence greenhouse test, plant response rating 0-100; conditions: Commelina virginica, post-emergence, Postemergence, scale 0 to 100; for pest or weed control at 125 g/ha: 125 g ai/ha; for pest or weed control at 500 g/ha: 500 g ai/ha
How it was run: (§1)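 Preemergence application to planted silt loam and postemergence application to 2–18 cm seedlings are run simultaneously. Evaluation is visual against controls after 14 to 21 days, scored from 0 (no effect) to 100 (complete control).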

[3] = tested on: palmer pigweed (Amaranthus palmeri); assay: as above; conditions: Amaranthus palmeri, post-emergence, Postemergence, scale 0 to 100; for pest or weed control at 125 g/ha: 125 g ai/ha; for pest or weed control at 500 g/ha: 500 g ai/ha
How it was run: as §1

[4] = tested on: waterhemp (common waterhemp, Amaranthus rudis); assay: as above; conditions: Amaranthus tuberculatus, post-emergence, Postemergence, scale 0 to 100; for pest or weed control at 125 g/ha: 125 g ai/ha; for pest or weed control at 500 g/ha: 500 g ai/ha
How it was run: as §1

[5] = tested on: fall panicum (Panicum dichotomiflorum); assay: as above; conditions: Panicum dichotomiflorum, post-emergence, Postemergence, scale 0 to 100; for pest or weed control at 125 g/ha: 125 g ai/ha
How it was run: as §1

[6] = tested on: arrowleaf sida (Sida rhombifolia); assay: as above; conditions: Sida rhombifolia, post-emergence, Postemergence; for pest or weed control at 125 g/ha: 125 g ai/ha; for pest or weed control at 500 g/ha: 500 g ai/ha, scale 0 to 100 (0 no effect, 100 complete control)
How it was run: as §1

[7] = tested on: corn (Zea mays); assay: as above; conditions: Zea mays, post-emergence, Postemergence, scale 0 to 100; for Corn plant response rating (crop injury, 0 = no effect, 100 = complete kill) at 125 g/ha: 125 g ai/ha; for Corn plant response rating (crop injury, 0 = no effect, 100 = complete kill) at 500 g/ha: 500 g ai/ha
How it was run: as §1

[8] = tested on: Italian ryegrass (Lolium multiflorum); assay: as above; conditions: Lolium multiflorum, post-emergence, Postemergence, scale 0 to 100; for pest or weed control at 125 g/ha: 125 g ai/ha; for pest or weed control at 500 g/ha: 500 g ai/ha
How it was run: as §1

[9] = tested on: hairy beggarticks (Bidens pilosa); assay: as above; conditions: Bidens pilosa, post-emergence, Postemergence, scale 0 to 100; for pest or weed control at 125 g/ha: 125 g ai/ha; for pest or weed control at 500 g/ha: 500 g ai/ha
How it was run: as §1

[10] = tested on: Brazilian crabgrass (Digitaria horizontalis); assay: as above; conditions: Digitaria horizontalis, post-emergence, Postemergence, scale 0 to 100, read-out: Plant response rating, Crabgrass, Brazil; for pest or weed control at 125 g/ha: 125 g ai/ha; for pest or weed control at 500 g/ha: 500 g ai/ha
How it was run: as §1

[11] = tested on: wild poinsettia (Euphorbia heterophylla); assay: as above; conditions: Euphorbia heterophylla, post-emergence, Postemergence, scale 0 to 100, read-out: Plant response rating, Poinsettia, Wild; for pest or weed control at 125 g/ha: 125 g ai/ha; for pest or weed control at 500 g/ha: 500 g ai/ha
How it was run: as §1

[12] = tested on: field bindweed (Convolvulus arvensis); assay: as above; conditions: Convolvulus arvensis, post-emergence, Postemergence, scale 0 to 100; for pest or weed control at 125 g/ha: 125 g ai/ha; for pest or weed control at 500 g/ha: 500 g ai/ha
How it was run: as §1

COC(OC)(c1ccccc1)c1c[nH]nc1-c1cc(Cl)cc(Cl)c1 [Compound 13, 3-(3,5-dichlorophenyl)-4-(dimethoxyphenylmethyl)-1H-pyrazole]
Plant response rating, Waterhemp_RES2 ([1]; 125 g ai/ha): 75
Plant response rating, Waterhemp_RES2 ([1]; 500 g ai/ha): 95
pest or weed control at 125 g/ha [2]: 10%
pest or weed control at 500 g/ha [2]: 10%
pest or weed control at 125 g/ha [3]: 85%
pest or weed control at 500 g/ha [3]: 95%
pest or weed control at 125 g/ha [4]: 90%
pest or weed control at 500 g/ha [4]: 95%
pest or weed control at 125 g/ha [5]: 0%
pest or weed control at 500 g/ha ([5]; 500 g ai/ha): 0%
pest or weed control at 125 g/ha ([6]; scale 0 to 100): 80%
pest or weed control at 500 g/ha [6]: 90%
Corn plant response rating (crop injury, 0 = no effect, 100 = complete kill) at 125 g/ha [7]: 0%
Corn plant response rating (crop injury, 0 = no effect, 100 = complete kill) at 500 g/ha [7]: 0%
pest or weed control at 125 g/ha [8]: 0%
pest or weed control at 500 g/ha [8]: 0%
pest or weed control at 125 g/ha [9]: 60%
pest or weed control at 500 g/ha [9]: 90%
pest or weed control at 125 g/ha [10]: 0%
pest or weed control at 500 g/ha [10]: 0%
pest or weed control at 125 g/ha [11]: 0%
pest or weed control at 500 g/ha [11]: 0%
pest or weed control at 125 g/ha [12]: 0%
pest or weed control at 500 g/ha [12]: 10%

CCOC(OCC)(c1ccccc1)c1c[nH]nc1-c1cc(Cl)cc(Cl)c1 [Compound 14, 3-(3,5-dichlorophenyl)-4-(diethoxyphenylmethyl)-1H-pyrazole]
Plant response rating, Waterhemp_RES2 ([1]; 31 g ai/ha): 75
Plant response rating, Waterhemp_RES2 ([1]; 62 g ai/ha): 85
Plant response rating, Waterhemp_RES2 ([1]; 125 g ai/ha): 90
Plant response rating, Waterhemp_RES2 ([1]; 250 g ai/ha): 95
Plant response rating, Waterhemp_RES2 ([1]; 500 g ai/ha): 95
pest or weed control at 31 g/ha ([2]; 31 g ai/ha): 0%
pest or weed control at 62 g/ha ([2]; 62 g ai/ha): 0%
pest or weed control at 125 g/ha [2]: 0%
pest or weed control at 250 g/ha ([2]; 250 g ai/ha): 0%
pest or weed control at 500 g/ha [2]: 0%
pest or weed control at 31 g/ha ([3]; 31 g ai/ha): 80%
pest or weed control at 62 g/ha ([3]; 62 g ai/ha): 90%
pest or weed control at 125 g/ha [3]: 95%
pest or weed control at 250 g/ha ([3]; 250 g ai/ha): 100%
pest or weed control at 500 g/ha [3]: 100%
pest or weed control at 31 g/ha ([4]; 31 g ai/ha): 90%
pest or weed control at 62 g/ha ([4]; 62 g ai/ha): 95%
pest or weed control at 125 g/ha [4]: 98%
pest or weed control at 250 g/ha ([4]; 250 g ai/ha): 100%
pest or weed control at 500 g/ha [4]: 100%
pest or weed control at 31 g/ha ([5]; 31 g ai/ha): 0%
pest or weed control at 62 g/ha ([5]; 62 g ai/ha): 0%
pest or weed control at 125 g/ha [5]: 0%
pest or weed control at 250 g/ha ([5]; 250 g ai/ha): 0%
pest or weed control at 31 g/ha ([6]; 31 g ai/ha, scale 0 to 100): 80%
pest or weed control at 62 g/ha ([6]; 62 g ai/ha, scale 0 to 100): 90%
pest or weed control at 125 g/ha ([6]; scale 0 to 100): 90%
pest or weed control at 250 g/ha ([6]; 250 g ai/ha, scale 0 to 100): 90%
pest or weed control at 500 g/ha [6]: 95%
Corn plant response rating (crop injury, 0 = no effect, 100 = complete kill) at 31 g/ha ([7]; 31 g ai/ha): 0%
Corn plant response rating (crop injury, 0 = no effect, 100 = complete kill) at 62 g/ha ([7]; 62 g ai/ha): 0%
Corn plant response rating (crop injury, 0 = no effect, 100 = complete kill) at 125 g/ha [7]: 0%
Corn plant response rating (crop injury, 0 = no effect, 100 = complete kill) at 250 g/ha ([7]; 250 g ai/ha): 0%
Corn plant response rating (crop injury, 0 = no effect, 100 = complete kill) at 500 g/ha [7]: 0%
pest or weed control at 31 g/ha ([8]; 31 g ai/ha): 0%
pest or weed control at 62 g/ha ([8]; 62 g ai/ha): 0%
pest or weed control at 125 g/ha [8]: 0%
pest or weed control at 250 g/ha ([8]; 250 g ai/ha): 0%
pest or weed control at 500 g/ha [8]: 0%
pest or weed control at 31 g/ha ([9]; 31 g ai/ha): 80%
pest or weed control at 62 g/ha ([9]; 62 g ai/ha): 90%
pest or weed control at 125 g/ha [9]: 95%
pest or weed control at 250 g/ha ([9]; 250 g ai/ha): 95%
pest or weed control at 500 g/ha [9]: 98%
pest or weed control at 31 g/ha ([10]; 31 g ai/ha): 0%
pest or weed control at 62 g/ha ([10]; 62 g ai/ha): 0%
pest or weed control at 125 g/ha [10]: 0%
pest or weed control at 250 g/ha ([10]; 250 g ai/ha): 0%
pest or weed control at 500 g/ha [10]: 0%
pest or weed control at 31 g/ha ([11]; 31 g ai/ha): 0%
pest or weed control at 62 g/ha ([11]; 62 g ai/ha): 0%
pest or weed control at 125 g/ha [11]: 0%
pest or weed control at 250 g/ha ([11]; 250 g ai/ha): 10%
pest or weed control at 500 g/ha [11]: 5%
pest or weed control at 31 g/ha ([12]; 31 g ai/ha): 0%
pest or weed control at 62 g/ha ([12]; 62 g ai/ha): 0%
pest or weed control at 125 g/ha [12]: 0%
pest or weed control at 250 g/ha ([12]; 250 g ai/ha): 0%
pest or weed control at 500 g/ha [12]: 0%
